Where “and” joins values, the source holds several entries; their conditions need not be identical. Equal values may be shown once.
How the values were obtained:
[1] = test system: polynucleotide kinase ribozyme Class II (Kin.25); assay: kinetic analysis of auto-thiophosphorylation by kinase ribozyme; assay type: biochemical
Experimental: (§1) Because the random pool initially prepared sampled sequence space very sparsely (there are between 4^100 and 10^60 possible 100-mers, but only approximately 10^16 different molecules in the pool), active molecules are likely to be sub-optimal catalysts. Accordingly, three cycles of mutagenic PCR (before selection cycles 7, 8, and 9) were performed to allow the evolution of improvements in the active molecules. Mutagenic PCR was performed as described by Bartel and Szostak (Science, 61:1411, 1993) and by Cadwell and Joyce (PCR Methods Appl., 28, 1992). Briefly, thirty total cycles of PCR were done at each round to yield - 2% mutagenesis. Reactions of pool RNAs were performed either with trace ATP-γ-^35 S, or with 100 μM ATP-γ-S plus additional trace ATP-γ-^35 S. Dithiothreitol (DTT, 10 mM) was included in the reactions. Reactions were quenched by the addition of one volume of 150 mM EDTA, 20 mM DTT in 95% formamide. Reactions were analyzed by electrophoresis on 10% polyacrylamide/8M urea gels. Quantitation was performed using a PhosphorImager (Molecular Dynamics). A known amount of ATP-γ-^35 S was spotted on the gels as a standard. The combined effect of increasing the stringency and performing mutagenic PCR was to increase the activity of the pool by nearly three orders of magnitude from cycle 6 to cycle 13 (FIG. 4).
(§2) Rates for each clone were determined (as described herein) at 6 different ATP-γ-S concentrations, ranging from 2 μM-[…].

[2] = test system: polynucleotide kinase ribozyme Class III (Kin.42); assay: as above; assay type: biochemical; conditions: 6 ATP-γ-S concentrations
Experimental: as §1, §2

[3] = test system: polynucleotide kinase ribozyme Class IV (Kin.44); assay: as above; assay type: biochemical; conditions: 6 ATP-γ-S concentrations
Experimental: as §1, §2

[4] = target: ATP-40-1 RNA (40-nucleotide ATP aptamer); assay: isocratic elution from ATP-C8-agarose column; assay type: binding; conditions: upper estimate, 5 mM Mg
Experimental: (§3) Isocratic elution (Arnold et al., J. Chromatography 31:1, 1986) from ATP-agarose and equilibrium gel filtration (Fersht, in Enzyme Structure and Mechanism p. 186-188, Freeman, New York, 1985) was used to measure the dissociation constant for the RNA-ATP complex on the column and in solution. […] The Kd for the ATP-agarose complex is an upper estimate, because the fraction of bound ATP that is accessible to the RNA is not known. The solution Kd for adenosine was similar to that of ATP (5-8 μM), but the Kd for dATP was not measurable (>1 mM). The Kd of ATP-40-1 for its ligand dropped to 2 μM when the Mg^+2 concentration was raised from 5 to 20 mM. Changing the base pair U18-A33 to C-G, as found in most of the clones initially selected, further decreased the Kd to 0.7 μM. At almost saturating concentrations of ATP (50 μM), the RNA bound ~0.7 equivalents of ATP. The RNA likely binds its ligands with a stoichiometry of unit.

[5] = target: ATP-binding RNA clone 8 (C8-ATP series, eighth cycle RNA population); assay: binding of individual eighth-cycle clones to ATP-agarose; conditions: read-out: dissociation constant (Kd)
Experimental: (§4) A chemically synthesized pool of DNA molecules containing a central region of 120 random nucleotides 5 flanked by constant regions used as primer binding sites was PCR-amplified and transcribed in vitro by T7 RNA polymerase in the presence of [α-^32 P][…]. RNA was ethanol-precipitated and unincorporated nucleotides removed by Sephadex-G50 chromatography. Following a brief incubation at 65° C. in binding buffer (300 mM NaCl, 20 Mm Tris, pH 7.6, 5 mM MgCl2), the RNA was cooled to room temperature before being loaded onto a 1-ml ATP agarose affinity column. […] After washing with 6 column-volumes of binding buffer, bound RNAs were eluted with 3 column-volumes of binding buffer containing 4 mM ATP, then concentrated by precipitation with ethanol. For the first three cycles, an agarose pre-column was used to prevent enrichment of the RNA pool with agarose-binding RNAs, and bound RNAs were eluted with 5 mM EDTA in water rather than affinity-eluted with ATP. After reverse transcription and PCR amplification, DNA templates were transcribed and the resulting RNA was used in the next round of selection. RNA from the eighth round of selection was converted to cDNA, amplified as double-stranded DNA by PCR, digested with EcoR1 and BamHl gel-purified and cloned into the phage M13 based vector pGem3Z (Promega, Madison, Wis.).
(§5) Thirty-nine clones from the eighth cycle RNA population were sequenced seventeen different sequences were found. Of these, the most abundant sequence (C8-ATP-3) occurred 14 times, and 12 sequences occurred just once. […] Clones 2, 3, 8, 15, and 19 were individually tested for binding to ATP-agarose.

[6] = target: ATP-binding RNA clone 3 (C8-ATP-3, full-length 164-nucleotide RNA); assay: as above; conditions: read-out: dissociation constant (Kd)
Experimental: as §4, §5

[7] = target: ATP-binding RNA clone 2 (C8-ATP series, eighth cycle RNA population); assay: as above; conditions: read-out: dissociation constant (Kd)
Experimental: as §4, §5

[8] = target: ATP-binding RNA clone 19 (C8-ATP series, eighth cycle RNA population); assay: as above; conditions: read-out: dissociation constant (Kd)
Experimental: as §4, §5

[9] = test system: ATP-binding RNA clone 15 (C8-ATP-15); assay: as above
Experimental: as §4, §5

[10] = target: ATP-40-1 RNA (40-nucleotide ATP aptamer); assay: equilibrium gel filtration (solution Kd); assay type: binding
Experimental: as §3

[11] = target: ATP-40-1 RNA variant, base pair U18-A33 changed to C-G; assay: Kd of ATP aptamer variant; assay type: binding; conditions: further decrease after raising Mg+2 to 20 mM
Experimental: as §3

[12] = target: Class III aptamer RNA (ATP aptamer region of Class III kinase ribozyme); assay: binding of kinase-class aptamer region RNA to C-8 linked ATP agarose; conditions: no detectable interaction with ATP agarose
From the text: (§6) Either the right or left hand stems of the Class II, VI and VII aptamer regions appear to be missing, and it seems likely that these molecules have found novel modes of binding their substrates. Using run-off transcription of synthetic DNA oligonucleotides (Milligan and Uhlenbeck, Methods Enzymol. 180:51, 1989) the RNAs corresponding to the Class I, III, IV, and V aptamer regions were produced. The Class IV aptamer RNA binds weakly to C-8 linked ATP agarose (Sassanfar and Szostak, supra), consistent with a molecule having a Kd for ATP in the range of 0.05-0.5 mM. […] Presumably, the corresponding classes of kinases have developed novel modes of binding ATP-γ-S.

[13] = target: Class I aptamer RNA (ATP aptamer region of Class I kinase ribozyme); assay: as above; conditions: no detectable interaction with ATP agarose
From the text: as §6

[14] = test system: BL2.8-7 self-biotinylating ribozyme (re-selected from BL8-6); assay: self-biotinylation time course; assay type: biochemical
Experimental: The rate of self-biotinylation was determined by a time course experiment. ^32 P-labelled RNA was first resuspended in incubation buffer (100 mM KCl, 10 mM Na-Hepes, pH 7.4, 5 mM MgCl2) and allowed to equilibrate for 10 minutes at room temperature. […] Samples were quenched and affinity purified as described in Haugland, Molecular Probes Handbook of Fluoprescent Probes and Research Chemicals. Aliquots were counted in a scintillation counter following ethanol precipitation (total RNA count) and following binding to streptavidin agarose (product RNA count); the ratio of these two counts is the fraction reacted. Optimizing enzymatic activity: It seemed likely that the original RNA pool from which the BL8-6 ribozyme was derived might not saturate the space of biotin-ligating ribozymes. […]
The background rate of guanosine alkylation by BIE was determined by two independent methods. […] To characterize the functional cores of the two molecules, we analyzed the sequences of active clones isolated from the two mutagenized RNA pools generated from the biotin aptamer and self-alkylating ribozyme sequences. […] Approximately thirty individual RNAs from each of these subcloned pools were sequenced and analyzed to determine which nucleotide positions were conserved and which pairs of nucleotides covaried to maintain Watson-Crick base pairing. […]

[15] = test system: BL8-6 self-biotinylating ribozyme (SEQ ID NO: 91); assay: self-biotinylation time course; assay type: biochemical; conditions: in the presence of 200 μM BIE
Experimental: The rate of self-biotinylation was determined by a time course experiment. ^32 P-labelled RNA was first resuspended in incubation buffer (100 mM KCl, 10 mM Na-Hepes, pH 7.4, 5 mM MgCl2) and allowed to equilibrate for 10 minutes at room temperature. 200 μM BIE was added to the mixture and aliquots were subsequently removed after 0 to 120 minutes of incubation. Samples were quenched and affinity purified as described in Haugland, Molecular Probes Handbook of Fluoprescent Probes and Research Chemicals. Aliquots were counted in a scintillation counter following ethanol precipitation (total RNA count) and following binding to streptavidin agarose (product RNA count); the ratio of these two counts is the fraction reacted. Optimizing enzymatic activity: It seemed likely that the original RNA pool from which the BL8-6 ribozyme was derived might not saturate the space of biotin-ligating ribozymes. To test the possibility that appropriate additional mutations to the BL8-6 sequence might increase its catalytic activity, a third RNA pool was generated based on its sequence but with non-wild-type nucleotides substituted at each position with 30% probability (FIG. 8D) (using methods described above). […] After eight rounds of selection (ending with a 1 minute incubation period at 10 μM BIE), active clones from the pool were sequenced and assayed for catalytic activity.

[16] = auto-thiophosphorylation, 6 ATP-γ-S concentrations
[17] = equilibrium gel filtration, 5 mM Mg, read-out: Kd (solution)

How did the Km [1, 16] turn out when Nc1ncnc2c1ncn2[C@@H]1O[C@H](COP(=O)(O)OP(=O)(O)OP(O)(O)=S)[C@@H](O)[C@H]1O [ATP-γ-S] was run?
The Km was 41 µM and 42 µM.

What about the kcat [1, 16] of the same compound?
Its kcat is 0.00333 ± 0.00033 s⁻¹ and 0.0055 ± 0.00033 s⁻¹.

And the kcat/Km ([1]; self-phosphorylation)?
Its kcat/Km is 100 M⁻¹ s⁻¹.

What about the kcat ([1]; self-phosphorylation, approximate value) of the same compound?
The kcat was “approximately 0.3 min^-1”.

What about the Km [2] of the same compound?
Its Km is 50 µM and 58 µM.

And the kcat [2]?
The kcat was 0.0012 ± 8.3e-05 s⁻¹ and 0.00167 ± 0.000267 s⁻¹.

What about the kcat [3] of the same compound?
The kcat was 0.0005 ± 1.7e-05 s⁻¹.

With Nc1ncnc2c1ncn2[C@@H]1O[C@H](COP(=O)(O)OP(=O)(O)OP(=O)(O)O)[C@@H](O)[C@H]1O [ATP] as the compound, how does the Kd [4] read?
Its Kd is roughly 14 µM.

What about the Kd [5] of the same compound?
The Kd was less than 50 µM.

And the Kd [6]?
The Kd was less than 50 µM.

And the Kd [7]?
The Kd was less than 50 µM.

And the Kd [8]?
Its Kd is less than 50 µM.

What about the “estimated Kd” value [9] of the same compound?
The value was ~ 250 μM.

What about the Kd ([10]; Mg+2 concentration raised from 5 to 20 mM, method not stated, read-out: Kd) of the same compound?
The Kd was 2 µM.

What about the Kd [10, 17] of the same compound?
Its Kd is 6 to 8 µM.

And the Kd [11]?
The Kd was 0.7 µM.

What about the Kd [12] of the same compound?
The Kd was greater than 500 µM.

What about the Kd [13] of the same compound?
The Kd was greater than 500 µM.

Which results are given for O=C(CI)NCCNC(=O)CCCC[C@@H]1SC[C@@H]2NC(=O)N[C@@H]21 [BIE, N-biotinoyl-N'-iodoacetylethylenediamine]?
rate of self-biotinylation ([14]; in the presence of 100 μM BIE): 0.05 min⁻¹; catalyzed biotinylation rate ([14]; time course experiment): approximately 8 s^-1 M^-1; rate of self-biotinylation [15]: 0.001 min⁻¹

With Nc1ncnc2c1ncn2[C@@H]1O[C@H](CO)[C@@H](O)[C@H]1O [adenosine] as the compound, how does the Kd [10, 17] read?
The Kd was 5 to 8 µM.

How did the Kd ([10]; not measurable, read-out: Kd (solution)) turn out when Nc1ncnc2c1ncn2[C@H]1C[C@H](O)[C@@H](COP(=O)(O)OP(=O)(O)OP(=O)(O)O)O1 [dATP] was run?
The Kd was greater than 1000 µM.
